In US12312347B2, “Azaindole derivative and use thereof as FGFR and C-Met inhibitor” (Wuxi Life Fountain Biotech Co., Ltd, priority 2018, dated 2025):
pIC50: −log10 of the molar value. Structures can show the parent of a compound that is named as a salt.

Columns and labels:
[1] = tested on: SNU-16 transplantation tumor model; test: In vivo pharmacodynamic evaluation, SNU-16 gastric cancer transplantation tumor model; parameters: species or system nude mice; details: SNU-16 transplantation model
Protocol: Method of establishing SNU-16 gastric cancer model: SNU-16 cells in logarithmic growth phase were collected, and the cells were resuspended in 50% PBS (pH 7.4, 0.01 M) and 50% Matrigel after cell counting. The cell concentration was adjusted to 4×10^7 cells/mL; the cells were placed in an ice box, and the cell suspension was aspirated with a 1-mL syringe and subcutaneously injected into nude mice via the anterior right armpit. Each animal was inoculated with 200 μL (8×10^6 cells/each) to establish the SNU-16 transplantation tumor model. The animals were observed regularly, and the tumor diameters were measured using an electronic vernier caliper. The data were inputted an Excel spreadsheet to calculate the tumor volume and monitor the tumor growth. When the tumor volume reached 100-300 mm^3, mice bearing similar tumor volume and in good health condition were selected. Randomization method was used for animal grouping; the number of animals in each group was n=7, and the average tumor volume of each group was about 145 mm^3. After the experiment started, tumor diameters were measured and tumor volume was calculated twice a week, and the weight of animals was weighed and recorded.
Tumor growth inhibition (TGI) was used to analyze the tumor growth trend and evaluated by tumor volume over time. The long axis (L) and short axis (W) of the subcutaneous tumors were measured twice a week by a caliper, and the tumor volume (TV) was calculated by the formula ((L×W^2)/2).
The experimental data were calculated and statistically processed by SPSS 19.0. Unless otherwise stated, data were expressed as mean f standard error (Mean±SE), and comparisons between two groups were analyzed by t-test. p<0.05 indicates a significant difference. The solvent 30% PEG400 (containing 70% deionized water, v/v) was used as negative control.

[2] = Pharmacokinetic evaluation in mice (IV and PO); format: in vivo, male CD-1 mice; details: for AUC(0-t) / bioavailability / Cmax / Tmax / clearance / half-life / Vd: male, plasma; for bioavailability: PO 10 mg/kg vs IV 2 mg/kg, read-out: F (bioavailability); for Cmax: read-out: Cmax (peak concentration); for Tmax: read-out: Tmax (time to peak); for clearance: read-out: Cl (plasma clearance); for half-life: read-out: T1/2 (elimination half-life) (converted); for Vd: read-out: Vdss (steady-state apparent volume of distribution); for oral bioavailability (in words): oral administration
Protocol: Experimental Procedure: 0.4 mg/mL clear solution of the test compounds in a specific menstruum was injected intravenously into male CD-1 nude mice (overnight fasting, aged 7-9 weeks) via caudal vein at a dose of 2 mg/kg. About 30 μL of blood was collected from jugular or caudal vein at 0.0833, 0.25, 0.5, 1.0, 2.0, 4.0, 8.0 and 24 h after intravenous administration. […] About 30 μL of blood was collected from jugular or caudal vein of the male CD-1 mice at 0.0833, 0.25, 0.5, 1.0, 2.0, 4.0, 8.0 and 24 h after oral administration. The blood samples were added into anticoagulant tubes containing EDTA-K2, and then centrifuged to separate the plasma. LC-MS/MS method was used to determine the drug concentration in blood, and WinNonlin™ Version 6.3 (Pharsight, Mountain View, CA) pharmacokinetic software was used to calculate the relevant pharmacokinetic parameters by non-compartment model linear logarithmic trapezoidal method.
Note: Plasma clearance (Cl) mL/min/kg, steady-state apparent volume of distribution (Vdss) L/kg, elimination half-life (T1/2) and area under the plasma concentration curve from point 0 to the last measurable time point (AUC0-last), bioavailability F %, peak concentration (Cmax), time to peak Tmax

human c-Met = biological target: T1, human c-Met (Homo sapiens, UniProt P08581); test: 33P isotope-labeled kinase activity test, c-Met; format: biochemical; details: ATP 10 μM
T1 construct: purchased Invitrogen PV3143
Protocol: (§1) The inhibitory activities of the tested compounds on human FGFR1, FGFR4, and c-Met were evaluated by the IC50 values measured using ^33P isotope-labeled kinase activity test (Reaction Biology Corp).
(§2) Buffer condition: 20 mM Hepes (pH 7.5), 10 mM MgCl2, 1 mM EGTA, 0.02% Brij35, 0.02 mg/mL BSA, 0.1 mM Na3VO4, 2 mM DTT, 1% DMSO.
(§3) Test procedure: The test compounds were dissolved in DMSO at room temperature and formulated to be 10 mM solutions for later use. The substrates were dissolved in freshly prepared buffer, and kinases to be tested were added and mixed well. The test compounds dissolved in DMSO were added to the above mixed reaction solutions by acoustic technique (Echo 550). The concentration of the compound in reaction solution was 1 μM, 0.25 μM, 0.156 μM, 3.91 nM, 0.977 nM, 0.244 nM, 0.061 nM, 0.0153 nM, 0.00381 nM or 10 μM, 2.50 μM, 0.62 μM, 0.156 μM, 39.1 nM, 9.8 nM, 2.4 nM, 0.61 nM, 0.15 nM, 0.038 nM. After incubation for 15 min, ^33P-ATP (activity 0.01 μCi/μL, corresponding concentrations are listed in Table 1) was added to start the reaction. Supplier item number, batch number, as well as the concentration information in the reaction solution of FGFR1, FGFR4, c-Met and substrates thereof are listed in Table 1. […] The kinase activity data are expressed by comparison between the kinase activity in the test compound group and the kinase activity in the blank group (containing DMSO only). IC50 values were obtained by curve fitting with Prism4 software (GraphPad).

human FGFR1 = biological target: T2, human FGFR1 (Homo sapiens, UniProt P11362); test: 33P isotope-labeled kinase activity test, FGFR1; format: biochemical; details: ATP 5 μM
T2 construct: purchased Invitrogen PV3146
Protocol: as §1, §2
as §3, with “The concentration of the compound in reaction solution was 1 μM, 0.25 μM, 0.156 μM, 3.91 nM, 0.977 nM, 0.244 nM, 0.061 nM, 0.0153 nM, 0.00381 nM or 10 μM, 2.50 μM, 0.62 μM, 0.156 μM, 39.1 nM, 9.8 nM, 2.4 nM, 0.61 nM, 0.15 nM, 0.038 nM.” left out

human FGFR4 = biological target: T3, human FGFR4 (Homo sapiens, UniProt P22455); test: 33P isotope-labeled kinase activity test, FGFR4; format: biochemical; details: ATP 100 μM
T3 construct: purchased Invitrogen P3054
Protocol: as §1, §2, §3

T3 sequence (P22455 22-802): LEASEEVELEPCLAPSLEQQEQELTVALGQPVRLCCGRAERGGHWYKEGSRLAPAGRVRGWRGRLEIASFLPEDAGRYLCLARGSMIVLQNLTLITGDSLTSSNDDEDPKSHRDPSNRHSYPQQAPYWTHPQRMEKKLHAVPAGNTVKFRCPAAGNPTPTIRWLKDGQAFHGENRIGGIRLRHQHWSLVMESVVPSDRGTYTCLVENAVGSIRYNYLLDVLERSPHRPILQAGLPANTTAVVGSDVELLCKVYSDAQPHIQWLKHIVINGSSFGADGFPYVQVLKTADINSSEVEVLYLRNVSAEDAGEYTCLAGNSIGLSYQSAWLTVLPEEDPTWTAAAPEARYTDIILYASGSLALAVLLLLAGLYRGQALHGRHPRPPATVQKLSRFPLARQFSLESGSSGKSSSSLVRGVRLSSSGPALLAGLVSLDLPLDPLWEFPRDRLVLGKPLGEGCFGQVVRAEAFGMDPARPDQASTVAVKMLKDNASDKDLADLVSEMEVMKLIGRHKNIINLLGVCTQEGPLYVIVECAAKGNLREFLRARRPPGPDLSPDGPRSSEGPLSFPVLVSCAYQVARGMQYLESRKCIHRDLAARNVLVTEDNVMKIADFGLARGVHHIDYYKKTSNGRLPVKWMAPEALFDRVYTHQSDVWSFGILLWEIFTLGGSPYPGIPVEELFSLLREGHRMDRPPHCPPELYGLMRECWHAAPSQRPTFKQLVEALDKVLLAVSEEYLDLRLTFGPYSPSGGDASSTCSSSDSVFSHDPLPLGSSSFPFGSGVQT
T1 sequence (P08581 25-1390): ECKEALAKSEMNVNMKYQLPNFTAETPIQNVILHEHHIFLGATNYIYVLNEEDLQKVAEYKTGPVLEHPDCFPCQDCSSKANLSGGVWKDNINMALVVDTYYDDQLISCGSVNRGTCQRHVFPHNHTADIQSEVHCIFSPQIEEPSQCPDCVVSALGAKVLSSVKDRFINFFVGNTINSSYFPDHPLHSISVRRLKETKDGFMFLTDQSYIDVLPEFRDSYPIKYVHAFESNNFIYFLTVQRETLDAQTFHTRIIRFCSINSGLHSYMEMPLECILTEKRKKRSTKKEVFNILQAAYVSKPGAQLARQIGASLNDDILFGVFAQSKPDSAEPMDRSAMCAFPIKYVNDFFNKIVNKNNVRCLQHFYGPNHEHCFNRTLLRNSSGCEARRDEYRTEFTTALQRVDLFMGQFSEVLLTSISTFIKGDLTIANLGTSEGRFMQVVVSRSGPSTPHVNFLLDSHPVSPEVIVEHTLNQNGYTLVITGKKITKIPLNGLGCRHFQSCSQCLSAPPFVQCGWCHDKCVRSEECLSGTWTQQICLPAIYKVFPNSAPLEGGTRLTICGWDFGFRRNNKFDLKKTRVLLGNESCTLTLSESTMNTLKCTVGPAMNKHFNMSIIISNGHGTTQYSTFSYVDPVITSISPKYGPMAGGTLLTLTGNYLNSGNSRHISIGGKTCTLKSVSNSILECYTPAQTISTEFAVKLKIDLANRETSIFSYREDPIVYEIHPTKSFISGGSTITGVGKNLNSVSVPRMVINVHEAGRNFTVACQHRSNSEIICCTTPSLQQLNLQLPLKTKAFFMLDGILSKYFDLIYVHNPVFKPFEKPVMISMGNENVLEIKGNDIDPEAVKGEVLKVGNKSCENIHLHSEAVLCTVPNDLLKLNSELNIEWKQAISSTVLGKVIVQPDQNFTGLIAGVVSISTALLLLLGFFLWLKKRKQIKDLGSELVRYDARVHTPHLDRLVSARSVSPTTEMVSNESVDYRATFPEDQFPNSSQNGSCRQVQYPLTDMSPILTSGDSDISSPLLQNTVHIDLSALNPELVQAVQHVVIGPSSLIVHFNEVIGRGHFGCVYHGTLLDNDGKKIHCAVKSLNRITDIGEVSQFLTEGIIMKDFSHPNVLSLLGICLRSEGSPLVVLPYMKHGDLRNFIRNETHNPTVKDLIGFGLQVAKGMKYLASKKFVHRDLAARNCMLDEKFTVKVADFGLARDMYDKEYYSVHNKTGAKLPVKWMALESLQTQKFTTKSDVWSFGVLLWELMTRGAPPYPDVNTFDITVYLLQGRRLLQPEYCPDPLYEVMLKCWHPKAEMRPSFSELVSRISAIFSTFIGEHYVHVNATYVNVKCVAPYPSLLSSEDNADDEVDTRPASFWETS
T2 sequence (P11362 22-822): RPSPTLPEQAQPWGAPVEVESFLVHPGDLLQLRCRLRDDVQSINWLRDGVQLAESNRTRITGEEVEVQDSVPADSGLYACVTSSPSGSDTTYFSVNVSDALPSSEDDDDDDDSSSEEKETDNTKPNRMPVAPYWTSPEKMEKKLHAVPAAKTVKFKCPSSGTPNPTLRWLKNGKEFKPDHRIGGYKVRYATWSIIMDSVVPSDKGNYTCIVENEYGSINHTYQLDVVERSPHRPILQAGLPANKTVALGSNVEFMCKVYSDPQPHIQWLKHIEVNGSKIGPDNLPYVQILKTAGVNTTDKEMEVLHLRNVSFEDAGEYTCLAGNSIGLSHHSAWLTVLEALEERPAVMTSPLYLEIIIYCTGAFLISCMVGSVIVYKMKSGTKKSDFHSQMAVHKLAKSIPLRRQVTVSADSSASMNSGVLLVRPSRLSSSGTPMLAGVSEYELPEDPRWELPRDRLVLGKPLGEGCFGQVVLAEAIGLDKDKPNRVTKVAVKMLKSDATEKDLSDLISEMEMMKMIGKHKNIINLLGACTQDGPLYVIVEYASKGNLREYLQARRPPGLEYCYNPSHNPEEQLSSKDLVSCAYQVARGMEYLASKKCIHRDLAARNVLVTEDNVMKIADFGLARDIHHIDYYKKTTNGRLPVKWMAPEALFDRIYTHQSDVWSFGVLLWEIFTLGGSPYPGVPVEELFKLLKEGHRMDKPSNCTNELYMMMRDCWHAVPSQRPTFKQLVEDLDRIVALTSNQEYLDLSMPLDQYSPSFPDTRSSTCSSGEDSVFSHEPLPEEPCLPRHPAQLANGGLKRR

## COc1cc(OC)c(F)c(Cc2c[nH]c3ncc(-c4cnn(CCO)c4)cc23)c1F [Embodiment 46]
[1]; 5 mg/KG BID
  TGI % (the last administration on the 21th day): 98%
[1]; 10 mg/KG QD
  TGI % (the last administration on the 21th day): 80%
[2]; CD-1, mouse, PO 10 mg/kg
  AUC(0-t): 16.6 µM·h
  Cmax: 5040 nM
  Tmax: 1 h
[2]; CD-1, mouse
  bioavailability: 86.6%
[2]; CD-1 nude, mouse, IV 2 mg/kg
  AUC(0-t): 3.79 µM·h
  clearance: 21.2 mL/min/kg
  half-life: 1.1 h
  Vd: 1.7 L/kg
[2]
  oral bioavailability (in words): high oral bioavailability

## COc1nc(OC)c(F)c(Cc2c[nH]c3ncc(-c4cnn(CCO)c4)cc23)c1F [Embodiment 48]
Human c-Met
  pIC50: 8.20
Human FGFR1
  pIC50: 9.52
Human FGFR4
  pIC50: 8.77
[1]; 10 mg/KG QD
  TGI % (the last administration on the 21th day): 77%
[2]; CD-1, mouse, PO 10 mg/kg
  AUC(0-t): 3.23 µM·h
  Cmax: 877 nM
  Tmax: 1.3 h
[2]; CD-1, mouse
  bioavailability: 21.5%
[2]; CD-1 nude, mouse, IV 2 mg/kg
  AUC(0-t): 3.15 µM·h
  clearance: 25.3 mL/min/kg
  half-life: 1.1 h
  Vd: 2.1 L/kg
[2]
  oral bioavailability (in words): moderate bioavailability

## CCN1CCC(n2cc(-c3cnc4[nH]cc(Cc5c(F)ccc(OC)c5F)c4c3)c(C)n2)CC1 [Trifluoroacetate salt of embodiment 39]
Human c-Met
  pIC50: 7.61
Human FGFR1
  pIC50: 7.54
Human FGFR4
  pIC50: 6.12

## COc1cc(OC)c(F)c(Cc2c[nH]c3ncc(-c4cnc5c(c4)CNC5)cc23)c1F [Trifluoroacetate salt of embodiment 50]
Human c-Met
  pIC50: 6.87
Human FGFR1
  pIC50: 9.92
Human FGFR4
  pIC50: 8.36

## CCN1Cc2cc(-c3cnc4[nH]cc(Cc5c(F)c(OC)cc(OC)c5F)c4c3)cnc2C1 [Trifluoroacetate salt of embodiment 51]
Human c-Met
  pIC50: 7.08
Human FGFR1
  pIC50: 9.57
Human FGFR4
  pIC50: 8.52

## COc1cc(OC)c(F)c(Cc2c[nH]c3ncc(-c4cnc5c(c4)CNCC5)cc23)c1F [Trifluoroacetate salt of embodiment 52]
Human c-Met
  pIC50: 6.86
Human FGFR1
  pIC50: 10.22
Human FGFR4
  pIC50: 7.86

## CCN1CCc2ncc(-c3cnc4[nH]cc(Cc5c(F)c(OC)cc(OC)c5F)c4c3)cc2C1 [Trifluoroacetate salt of embodiment 53]
Human c-Met
  pIC50: 6.97
Human FGFR1
  pIC50: 9.49
Human FGFR4
  pIC50: 8.54

## COc1cc(OC)c(F)c(Cc2c[nH]c3ncc(-c4ccc5c(c4)NC(=O)C54CCNCC4)cc23)c1F [Trifluoroacetate salt of embodiment 54]
Human c-Met
  pIC50: 7.78
Human FGFR1
  pIC50: 8.57
Human FGFR4
  pIC50: 7.23

## CCN1CCC2(CC1)C(=O)Nc1cc(-c3cnc4[nH]cc(Cc5c(F)c(OC)cc(OC)c5F)c4c3)ccc12 [Trifluoroacetate salt of embodiment 55]
Human c-Met
  pIC50: 7.64
Human FGFR1
  pIC50: 8.66
Human FGFR4
  pIC50: 7.35

## COc1cc(OC)c(F)c(Cc2c[nH]c3ncc(-c4ccc5c(c4)NC(=O)C54CCN(C)CC4)cc23)c1F [Trifluoroacetate salt of embodiment 56]
Human c-Met
  pIC50: 8.11
Human FGFR1
  pIC50: 8.72
Human FGFR4
  pIC50: 7.27

## CCN1CCC(C#N)(c2ccc(-c3cnc4[nH]cc(Cc5c(F)c(OC)cc(OC)c5F)c4c3)cc2)CC1 [Trifluoroacetate salt of embodiment 58]
Human c-Met
  pIC50: 6.79
Human FGFR1
  pIC50: 8.92
Human FGFR4
  pIC50: 7.63

## COc1cc(OC)c(F)c(Cc2c[nH]c3ncc(-c4cccc(C5(C#N)CCNCC5)c4)cc23)c1F [Trifluoroacetate salt of embodiment 59]
Human c-Met
  pIC50: 6.90
Human FGFR1
  pIC50: 9.10
Human FGFR4
  pIC50: 7.83

## CCN1CCC(C#N)(c2cccc(-c3cnc4[nH]cc(Cc5c(F)c(OC)cc(OC)c5F)c4c3)c2)CC1 [Trifluoroacetate salt of embodiment 60]
Human c-Met
  pIC50: 6.50
Human FGFR1
  pIC50: 8.66
Human FGFR4
  pIC50: 7.48

## COc1cc(OC)c(F)c(Cc2c[nH]c3ncc(-c4cncc(C5(C#N)CCNCC5)c4)cc23)c1F [Trifluoroacetate salt of embodiment 61]
Human c-Met
  pIC50: 6.61
Human FGFR1
  pIC50: 9.15
Human FGFR4
  pIC50: 8.35

## COc1cc(OC)c(F)c(Cc2c[nH]c3ncc(-c4cnn(CC(C)(C)O)c4)cc23)c1F [Trifluoroacetate salt of embodiment 66]
Human c-Met
  pIC50: 7.55
Human FGFR1
  pIC50: 9.30
Human FGFR4
  pIC50: 8.05
